Laboratory results from PubChem BioAssay (NCI).
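The compound was tested at five concentrations on cells cultured in 96-well plates, with a 48-hour exposure period. GI50 is the concentration that inhibits growth by half. TGI denotes the concentration required for complete inhibition of growth.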

Assays:
Assay in all cases: DTP human tumour cell line panel, 48 h
A498 renal = test system: A498 renal
ACHN renal = test system: ACHN renal
CCRF-CEM leukemia = test system: CCRF-CEM leukemia
DU-145 prostate = test system: DU-145 prostate
HCT-15 colon = test system: HCT-15 colon
HT29 colon = test system: HT29 colon
K-562 leukemia = test system: K-562 leukemia
MOLT-4 leukemia = test system: MOLT-4 leukemia
NCI/ADR-RES ovarian = test system: NCI/ADR-RES ovarian
OVCAR-4 ovarian = test system: OVCAR-4 ovarian
OVCAR-5 ovarian = test system: OVCAR-5 ovarian
SN12C renal = test system: SN12C renal
SNB-75 CNS = test system: SNB-75 CNS
SR leukemia = test system: SR leukemia
SW-620 colon = test system: SW-620 colon
TK-10 renal = test system: TK-10 renal
UACC-62 melanoma = test system: UACC-62 melanoma
BT-549 breast = test system: BT-549 breast
CAKI-1 renal = test system: CAKI-1 renal
EKVX NSCLC = test system: EKVX NSCLC
HCC-2998 colon = test system: HCC-2998 colon
HOP-62 NSCLC = test system: HOP-62 NSCLC
HOP-92 NSCLC = test system: HOP-92 NSCLC
KM12 colon = test system: KM12 colon
MALME-3M melanoma = test system: MALME-3M melanoma
MDA-MB-231 breast = test system: MDA-MB-231 breast
MDA-MB-435 = test system: MDA-MB-435
OVCAR-8 ovarian = test system: OVCAR-8 ovarian
PC-3 prostate = test system: PC-3 prostate
RPMI-8226 leukemia = test system: RPMI-8226 leukemia
RXF 393 renal = test system: RXF 393 renal
SF-295 CNS = test system: SF-295 CNS
SF-539 CNS = test system: SF-539 CNS
SK-MEL-2 melanoma = test system: SK-MEL-2 melanoma
SK-MEL-28 melanoma = test system: SK-MEL-28 melanoma
SK-MEL-5 melanoma = test system: SK-MEL-5 melanoma
UO-31 renal = test system: UO-31 renal

## CCCc1cn2c(/C=N/N=C(N)N)c(-c3cc([N+](=O)[O-])c(Cl)cc3Cl)nc2s1
A498 renal
  TGI: 2.88 µM
ACHN renal
  TGI: 3.16 µM
CCRF-CEM leukemia
  TGI: 0.86 µM
DU-145 prostate
  TGI: 3.53 µM
HCT-15 colon
  TGI: 3.02 µM
HT29 colon
  TGI: 2.46 µM
K-562 leukemia
  TGI: 2.49 µM
MOLT-4 leukemia
  TGI: 0.873 µM
NCI/ADR-RES ovarian
  TGI: 4.31 µM
OVCAR-4 ovarian
  TGI: 2.83 µM
OVCAR-5 ovarian
  TGI: 3.12 µM
SN12C renal
  TGI: 3.16 µM
SNB-75 CNS
  TGI: 3.07 µM
SR leukemia
  TGI: 2.92 µM
SW-620 colon
  TGI: 2.97 µM
TK-10 renal
  TGI: 2.33 µM
UACC-62 melanoma
  TGI: 3.15 µM

## Cc1[nH]c(C(=O)Nc2ccc(C(=O)NCCN)cc2OC(C)C)c(Cl)c1Cl
ACHN renal
  GI50: 1.67 µM
  TGI: 3.07 µM
BT-549 breast
  GI50: 10.6 µM
  TGI: 33 µM
CAKI-1 renal
  GI50: 1.63 µM
  TGI: 3.04 µM
CCRF-CEM leukemia
  GI50: 2.13 µM
  TGI: 5.17 µM
DU-145 prostate
  GI50: 1.69 µM
  TGI: 3.14 µM
EKVX NSCLC
  GI50: 1.62 µM
  TGI: 3.17 µM
HCC-2998 colon
  GI50: 1.82 µM
  TGI: 3.48 µM
HOP-62 NSCLC
  GI50: 1.95 µM
  TGI: 4.53 µM
HOP-92 NSCLC
  GI50: 1.3 µM
  TGI: 2.87 µM
KM12 colon
  GI50: 1.74 µM
  TGI: 3.21 µM
MALME-3M melanoma
  GI50: 1.46 µM
  TGI: 3.19 µM
MDA-MB-231 breast
  GI50: 1.69 µM
  TGI: 3.27 µM
MDA-MB-435
  GI50: 1.66 µM
  TGI: 3.08 µM
NCI/ADR-RES ovarian
  GI50: 4.32 µM
  TGI: 22.6 µM
OVCAR-5 ovarian
  GI50: 1.67 µM
  TGI: 3.11 µM
OVCAR-8 ovarian
  GI50: 2.23 µM
  TGI: 5.43 µM
PC-3 prostate
  GI50: 1.82 µM
  TGI: 3.53 µM
RPMI-8226 leukemia
  GI50: 1.92 µM
  TGI: 4.49 µM
RXF 393 renal
  GI50: 1.71 µM
  TGI: 3.36 µM
SF-295 CNS
  GI50: 1.76 µM
  TGI: 3.23 µM
SF-539 CNS
  GI50: 1.68 µM
  TGI: 3.14 µM
SK-MEL-2 melanoma
  GI50: 1.99 µM
  TGI: 3.76 µM
SK-MEL-28 melanoma
  GI50: 1.76 µM
  TGI: 3.21 µM
SK-MEL-5 melanoma
  GI50: 1.78 µM
  TGI: 3.2 µM
SN12C renal
  GI50: 1.82 µM
  TGI: 3.41 µM
SNB-75 CNS
  GI50: 1.55 µM
  TGI: 3.07 µM
UACC-62 melanoma
  GI50: 1.7 µM
  TGI: 3.08 µM
UO-31 renal
  GI50: 1.54 µM
  TGI: 2.96 µM
